We go through three compounds from US20240108632A1, “PHARMACEUTICAL COMPOSITION FOR ADMINISTRATION AS OPHTHALMIC DROP TO PATIENT REQUIRING OPTIC NERVE PROTECTION” (PINOTBIO, INC., priority 2020, published 2024).

The test system of one data set is normal patients. As to conditions: cited from earlier work.
The subject of data set [1] is cynomolgus macaque model of glaucoma. As to the kind of experiment: Retinal nerve fiber layer thickness by OCT in cynomolgus macaque model of glaucoma. The class given is in vivo. As to the method:
(§1) Three weeks before the first laser trabeculoplasty, IOP was measured via a tomometer (SPHPR-320-61), once per week for three weeks. The first laser trabeculoplasty was performed in one eye for each macaque. Two weeks later, laser trabeculoplasty was repeated in the same eye (Week 0).
(§2) One week after the second laser trabeculoplasty (Week 1), IOP was measured and retinal nerve fiber layer (RNFL) thickness was measured via optical coherence tomography (OCT; RS3000 Advance, Nidek Co. Ltd., Gamagoori, Japan) (SPHPR- 320-58). The day after group assignment, the eyes were instilled with either vehicle, KR-67607 or brimonidine twice a day. On Day 1, the effect of treatment on IOP over time was measured before treatment and 1, 2, 4, and 8 hrs. after instillation. At the same time, blood samples were obtained. From the effects of dosing observed on Day 1, it was determined that 2 hrs. was a reasonable time time-to-test following instillation for subsequent observations.
(§3) Intraocular pressures were obtained at Weeks 2, 3, 4, 5, 7 and 9. Optical coherence tomography and color fundus photography (CFP) were performed at Weeks 1, 3, 5, 7, and 9 (SPHPR-320-56).

Data set [2] shares this test system. The data set can be described thus: Intraocular pressure in cynomolgus macaque model of glaucoma (laser trabeculoplasty). The class given is in vivo. As to the method:
as §1, §2, §3
Following measurements at Week 9, G3 macaques was randomized into two groups based on IOP, and the effect of KR-67607 (1.5 mg/mL, 3.0 mg/mL) on IOP was evaluated.

Data set [3] shares this test system. The data set can be described thus: Funduscopy in cynomolgus macaque model of glaucoma. The format is in vivo. As to the method:
as §1, §2, §3

For data set [4] the following is noted: cited from earlier work.

As to `CC1(C)[C@@H](OC(=O)CCC(=O)O)CC[C@]2(C)[C@H]3C(=O)C=C4[C@@H]5C[C@@](C)(C(=O)O)CC[C@]5(C)CC[C@@]4(C)[C@]3(C)CC[C@@H]12` [carbenoxolone], the “reduce intraocular pressure to levels as low as” value in the data set with normal patients is 20%.

In the case of “Brimonidine tartrate [reference compound]”, in data set [1] (Week 9, 6 eyes per group), the “number of eyes with RNFL thickness greater than 50% compared to baseline” value stood at 1. For the same compound, the “RNFL thinning in glaucomatous eyes” value in data set [1] (repeated treatment, compared to vehicle-treated (G1)) is “appeared to inhibit”. Further, the “maximum decrease of IOP, contralateral normal eye” value in data set [2] (Day 1 dosing, 2 hours after dosing) is listed as 4.1±0.9 mmHg. In data set [2] (Day 1 dosing, 2 hours after instillation), the “maximum decrease of IOP, glaucomatous eye” value came out at 19.5±2.7 mmHg. Moreover, the “effect on trough IOP value” in data set [2] (glaucomatous eyes, repeated treatment twice a day, brimonidine tartrate 0.1%, KR-67607 1.5 mg/mL) is given as “did not significantly affect”. Besides, in data set [2] (over weeks), the “maximum decrease of IOP, normal eye” value was found to be 4.9±0.8 mmHg. The “animals with a lesser degree of cupping compared to G1” value in data set [3] (Week 3 to Week 5) was “three animals”. Further, the “animals with a small or lesser degree of cupping” value in data set [3] (Week 9) is on record as “one animal”.

On to “2-hydroxypropyl-β-cyclodextrin [HP-β-CD]”, for which the solubility in water result in data set [4] is “more than 1 g/ml”.
